# Results reported in ChEMBL document CHEMBL1127517 (J Med Chem, 1994).
# How the values were obtained:
# Rattus norvegicus [1] = experiment: Distribution of radio activity in tissues of unfasted male rats was measured at 120 min of time in liver after intravenous administration; format: ADME, organism-based; conditions: in vivo, 2 h
# Rattus norvegicus [2] = experiment: Distribution of radio activity in tissues of unfasted male rats was measured at 30 min of time in spleen after intravenous administration; format: ADME, organism-based; conditions: in vivo, 0.5 h
# Rattus norvegicus [3] = experiment: Distribution of radio activity in tissues of unfasted male rats was measured at 120 min of time in thyroid after intravenous administration; format: ADME, organism-based, Thyroid gland; conditions: in vivo, 2 h
# Rattus norvegicus [4] = experiment: Distribution of radio activity in tissues of unfasted male rats was measured at 60 min of time in skin after intravenous administration; format: ADME, organism-based; conditions: in vivo, 1 h
# Rattus norvegicus [5] = experiment: Distribution of radio activity in tissues of unfasted male rats was measured at 2 min of time in blood after intravenous administration; format: ADME, organism-based; conditions: in vivo
# Rattus norvegicus [6] = experiment: Distribution of radio activity in tissues of unfasted male rats was measured as regional uptake at 60 min of time in hippocampus after intravenous administration; format: ADME, organism-based; conditions: in vivo, 1 h
# Rattus norvegicus [7] = experiment: Distribution of radio activity in tissues of unfasted male rats was measured at 2 min of time in liver after intravenous administration; format: ADME, organism-based; conditions: in vivo
# Rattus norvegicus [8] = experiment: Distribution of radio activity in tissues of unfasted male rats was measured at 60 min of time in lung after intravenous administration; format: ADME, organism-based; conditions: in vivo, 1 h
# Rattus norvegicus [9] = experiment: Distribution of radio activity in tissues of unfasted male rats was measured as regional uptake at 2 min of time in cerebellum after intravenous administration; format: ADME, organism-based; conditions: in vivo
# Rattus norvegicus [10] = experiment: Distribution of radio activity in tissues of unfasted male rats was measured at 30 min of time in thyroid after intravenous administration; format: ADME, organism-based, Thyroid gland; conditions: in vivo, 0.5 h
# Rattus norvegicus [11] = experiment: Distribution of radio activity in tissues of unfasted male rats was measured at 30 min of time in kidney after intravenous administration; format: ADME, organism-based; conditions: in vivo, 0.5 h
# Rattus norvegicus [12] = experiment: Distribution of radio activity in tissues of unfasted male rats was measured as regional uptake at 2 min of time in striatum after intravenous administration; format: ADME, organism-based; conditions: in vivo
# Rattus norvegicus [13] = experiment: Distribution of radio activity in tissues of unfasted male rats was measured as regional uptake at 120 min of time in cortex after intravenous administration; format: ADME, organism-based; conditions: in vivo, 2 h
# Rattus norvegicus [14] = experiment: Distribution of radio activity in tissues of unfasted male rats was measured at 30 min of time in blood after intravenous administration; format: ADME, organism-based; conditions: in vivo, 0.5 h
# Rattus norvegicus [15] = experiment: Distribution of radio activity in tissues of unfasted male rats was measured as regional uptake at 2 min of time in cortex after intravenous administration; format: ADME, organism-based; conditions: in vivo
# Rattus norvegicus [16] = experiment: Distribution of radio activity in tissues of unfasted male rats was measured at 60 min of time in muscle after intravenous administration; format: ADME, organism-based, Muscle tissue; conditions: in vivo, 1 h
# [17] = molecular target: T1, Sodium-dependent dopamine transporter (Rattus norvegicus, UniProt P23977); experiment: Inhibitory constant towards reuptake of [125I]-13 from dopamine transporter in rat striatal membranes; format: cell membranes, Membrane
# T1 sequence (P23977 whole entry): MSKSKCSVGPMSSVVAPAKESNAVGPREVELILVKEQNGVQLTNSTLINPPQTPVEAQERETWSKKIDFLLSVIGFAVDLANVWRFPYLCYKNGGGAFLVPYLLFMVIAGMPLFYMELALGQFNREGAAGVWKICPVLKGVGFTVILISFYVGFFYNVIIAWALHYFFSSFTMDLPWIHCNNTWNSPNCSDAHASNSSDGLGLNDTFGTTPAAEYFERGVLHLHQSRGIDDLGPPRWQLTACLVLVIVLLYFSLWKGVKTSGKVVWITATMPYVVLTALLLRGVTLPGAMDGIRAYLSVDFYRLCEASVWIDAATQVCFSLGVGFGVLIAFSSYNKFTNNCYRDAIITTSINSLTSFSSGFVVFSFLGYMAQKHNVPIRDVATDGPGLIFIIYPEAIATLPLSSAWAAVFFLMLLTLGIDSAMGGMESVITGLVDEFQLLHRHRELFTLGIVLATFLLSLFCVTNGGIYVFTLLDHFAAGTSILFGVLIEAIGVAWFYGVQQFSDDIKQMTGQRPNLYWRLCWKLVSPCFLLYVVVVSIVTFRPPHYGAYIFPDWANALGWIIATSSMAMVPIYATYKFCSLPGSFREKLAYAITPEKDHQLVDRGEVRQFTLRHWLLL
# Rattus norvegicus [18] = experiment: Distribution of radio activity in tissues of unfasted male rats was measured at 120 min of time in spleen after intravenous administration; format: ADME, organism-based; conditions: in vivo, 2 h
# Rattus norvegicus [19] = experiment: Distribution of radio activity in tissues of unfasted male rats was measured at 2 min of time in heart after intravenous administration; format: ADME, organism-based; conditions: in vivo
# Rattus norvegicus [20] = experiment: Distribution of radio activity in tissues of unfasted male rats was measured as regional uptake at 60 min of time in cortex after intravenous administration; format: ADME, organism-based; conditions: in vivo, 1 h
# Rattus norvegicus [21] = experiment: Distribution of radio activity in tissues of unfasted male rats was measured at 60 min of time in kidney after intravenous administration; format: ADME, organism-based; conditions: in vivo, 1 h
# [22] = molecular target: T1, Sodium-dependent dopamine transporter; experiment: Inhibitory constant towards reuptake of [125I]-12 from dopamine transporter in rat striatal membranes; format: cell membranes, Membrane
# Rattus norvegicus [23] = experiment: Distribution of radio activity in tissues of unfasted male rats was measured at 30 min of time in lung after intravenous administration; format: ADME, organism-based; conditions: in vivo, 0.5 h
# Rattus norvegicus [24] = experiment: Distribution of radio activity in tissues of unfasted male rats was measured at 60 min of time in blood after intravenous administration; format: ADME, organism-based; conditions: in vivo, 1 h
# Rattus norvegicus [25] = experiment: Distribution of radio activity in tissues of unfasted male rats was measured at 120 min of time in heart after intravenous administration; format: ADME, organism-based; conditions: in vivo, 2 h
# Rattus norvegicus [26] = experiment: Distribution of radio activity in tissues of unfasted male rats was measured at 2 min of time in kidney after intravenous administration; format: ADME, organism-based; conditions: in vivo
# Rattus norvegicus [27] = experiment: Distribution of radio activity in tissues of unfasted male rats was measured at 60 min of time in heart after intravenous administration; format: ADME, organism-based; conditions: in vivo, 1 h
# Rattus norvegicus [28] = experiment: Distribution of radio activity in tissues of unfasted male rats was measured at 120 min of time in brain after intravenous administration; format: ADME, organism-based; conditions: in vivo, 2 h
# Rattus norvegicus [29] = experiment: Distribution of radio activity in tissues of unfasted male rats was measured at 30 min of time in skin after intravenous administration; format: ADME, organism-based; conditions: in vivo, 0.5 h
# Rattus norvegicus [30] = experiment: Distribution of radio activity in tissues of unfasted male rats was measured at 2 min of time in muscle after intravenous administration; format: ADME, organism-based, Muscle tissue; conditions: in vivo
# Rattus norvegicus [31] = experiment: Distribution of radio activity in tissues of unfasted male rats was measured as regional uptake at 120 min of time in hippocampus after intravenous administration; format: ADME, organism-based; conditions: in vivo, 2 h
# Rattus norvegicus [32] = experiment: Distribution of radio activity in tissues of unfasted male rats was measured at 30 min of time in brain after intravenous administration; format: ADME, organism-based; conditions: in vivo, 0.5 h
# Rattus norvegicus [33] = experiment: Distribution of radio activity in tissues of unfasted male rats was measured as regional uptake at 30 min of time in ST/CB after intravenous administration; format: ADME, organism-based; conditions: in vivo, 0.5 h
# Rattus norvegicus [34] = experiment: Distribution of radio activity in tissues of unfasted male rats was measured as regional uptake at 30 min of time in hippocampus after intravenous administration; format: ADME, organism-based; conditions: in vivo, 0.5 h
# Rattus norvegicus [35] = experiment: Distribution of radio activity in tissues of unfasted male rats was measured as regional uptake at 30 min of time in cerebellum after intravenous administration; format: ADME, organism-based; conditions: in vivo, 0.5 h
# Rattus norvegicus [36] = experiment: Distribution of radio activity in tissues of unfasted male rats was measured as regional uptake at 2 min of time in ST/CB after intravenous administration; format: ADME, organism-based; conditions: in vivo
# Rattus norvegicus [37] = experiment: Distribution of radio activity in tissues of unfasted male rats was measured as regional uptake at 120 min of time in striatum after intravenous administration; format: ADME, organism-based; conditions: in vivo, 2 h
# Rattus norvegicus [38] = experiment: Distribution of radio activity in tissues of unfasted male rats was measured at 120 min of time in muscle after intravenous administration; format: ADME, organism-based, Muscle tissue; conditions: in vivo, 2 h
# Rattus norvegicus [39] = experiment: Distribution of radio activity in tissues of unfasted male rats was measured as regional uptake at 2 min of time in hippocampus after intravenous administration; format: ADME, organism-based; conditions: in vivo
# Rattus norvegicus [40] = experiment: Distribution of radio activity in tissues of unfasted male rats was measured as regional uptake at 30 min of time in cortex after intravenous administration; format: ADME, organism-based; conditions: in vivo, 0.5 h
# Rattus norvegicus [41] = experiment: Distribution of radio activity in tissues of unfasted male rats was measured at 2 min of time in thyroid after intravenous administration; format: ADME, organism-based, Thyroid gland; conditions: in vivo
# Rattus norvegicus [42] = experiment: Distribution of radio activity in tissues of unfasted male rats was measured as regional uptake at 30 min of time in striatum after intravenous administration; format: ADME, organism-based; conditions: in vivo, 0.5 h
# Rattus norvegicus [43] = experiment: Distribution of radio activity in tissues of unfasted male rats was measured as regional uptake at 60 min of time in ST/CB after intravenous administration; format: ADME, organism-based; conditions: in vivo, 1 h
# Rattus norvegicus [44] = experiment: Distribution of radio activity in tissues of unfasted male rats was measured at 2 min of time in brain after intravenous administration; format: ADME, organism-based; conditions: in vivo
# Rattus norvegicus [45] = experiment: Distribution of radio activity in tissues of unfasted male rats was measured at 2 min of time in spleen after intravenous administration; format: ADME, organism-based; conditions: in vivo
# Rattus norvegicus [46] = experiment: Distribution of radio activity in tissues of unfasted male rats was measured as regional uptake at 60 min of time in cerebellum after intravenous administration; format: ADME, organism-based; conditions: in vivo, 1 h
# Rattus norvegicus [47] = experiment: Distribution of radio activity in tissues of unfasted male rats was measured at 60 min of time in thyroid after intravenous administration; format: ADME, organism-based, Thyroid gland; conditions: in vivo, 1 h
compound,measurement,setting,value
COC(=O)C1C(c2ccc(Cl)cc2)CC2CCC1N2C/C=C\I (configuration not stated),Injected dose/organ,Rattus norvegicus [1],1.28%
same,Injected dose/organ,Rattus norvegicus [2],0.19%
same,Injected dose/organ,Rattus norvegicus [3],1.29%
same,Injected dose/organ,Rattus norvegicus [4],24.81%
same,Injected dose/organ,Rattus norvegicus [5],5.01%
same,Dose/g,Rattus norvegicus [6],0.04%
same,Injected dose/organ,Rattus norvegicus [7],12.13%
same,Injected dose/organ,Rattus norvegicus [8],0.5%
same,Dose/g,Rattus norvegicus [9],0.82%
same,Injected dose/organ,Rattus norvegicus [10],1.02%
same,Injected dose/organ,Rattus norvegicus [11],0.78%
same,Dose/g,Rattus norvegicus [12],0.92%
same,Dose/g,Rattus norvegicus [13],0.03%
same,Injected dose/organ,Rattus norvegicus [14],8%
same,Dose/g,Rattus norvegicus [15],0.91%
same,Injected dose/organ,Rattus norvegicus [16],12.22%
same,Ki,[17],6.3 nM
same,Injected dose/organ,Rattus norvegicus [18],0.09%
same,Injected dose/organ,Rattus norvegicus [19],0.85%
same,Dose/g,Rattus norvegicus [20],0.04%
same,Injected dose/organ,Rattus norvegicus [21],0.56%
same,Ki,[22],1.27 nM
same,Injected dose/organ,Rattus norvegicus [23],0.78%
same,Injected dose/organ,Rattus norvegicus [24],5.77%
same,Injected dose/organ,Rattus norvegicus [25],0.11%
same,Injected dose/organ,Rattus norvegicus [26],2.65%
same,Injected dose/organ,Rattus norvegicus [27],0.16%
same,Injected dose/organ,Rattus norvegicus [28],0.04%
same,Injected dose/organ,Rattus norvegicus [29],26.73%
same,Injected dose/organ,Rattus norvegicus [30],29.15%
same,Dose/g,Rattus norvegicus [31],0.03%
same,Injected dose/organ,Rattus norvegicus [32],0.21%
same,Dose/g,Rattus norvegicus [33],3%
same,Dose/g,Rattus norvegicus [34],0.12%
same,Dose/g,Rattus norvegicus [35],0.19%
same,Dose/g,Rattus norvegicus [36],1.12%
same,Dose/g,Rattus norvegicus [37],0.05%
same,Injected dose/organ,Rattus norvegicus [38],9.22%
same,Dose/g,Rattus norvegicus [39],0.69%
same,Dose/g,Rattus norvegicus [40],0.11%
same,Injected dose/organ,Rattus norvegicus [41],0.08%
same,Dose/g,Rattus norvegicus [42],0.33%
same,Dose/g,Rattus norvegicus [43],2.7%
same,Injected dose/organ,Rattus norvegicus [44],1.27%
same,Injected dose/organ,Rattus norvegicus [45],0.4%
same,Dose/g,Rattus norvegicus [46],0.04%
same,Injected dose/organ,Rattus norvegicus [47],0.94%
